Assay results reported in patent US12674204B2, “Method for generating retinal pigment epithelium (RPE) cells from induced pluripotent stem cells (iPSCs)” (THE UNITED STATES OF AMERICA, as represented by the …, priority 2013, dated 2026).

What was measured:
Assay type in all cases: cell-based, human
[1] = test system: iPSC-derived RPE cells; assay: Sensitivity of iPSC-derived RPE cells to proteotoxic stressors in 384-well plates; details: conc. 10 μM, signals measured four days after the treatment, FIG. 29
Description: FIG. 29 is a bar graph showing the sensitivity of iPSC-derived RPE cells to various proteotoxic stressors. RPE cells differentiated from the reporter iPS cell line were grown in 384-well plates and treated with indicated stressors (conc. 10 μM). […] signals were measured four days after the treatment.

[2] = test system: iPSC-derived RPE; assay: Intracellular calcium measurements and electrophysiology of iPSC-derived RPE monolayers
Description: Intracellular Calcium Measurements and Electrophysiology: To assess calcium signaling in the RPE cells: ATP (200 μM; Sigma) and Cyclopiazonic Acid (CPA; 10 μM; EMD Millipore); (see Maminishkis et al., Invest. Ophthal. Vis. Sci. 47(8):3612-3624, 2006); Quinn et al., Invest. Ophthal. Vis. Sci. 33(13):3513-3527, 1992).
(§1) Calomel electrodes in series with Ringer solutions and agar bridges were used to measure the transepithelial potential (TEP). The signals from intracellular microelectrodes were referenced to the basal bath to measure the apical and basal membrane potentials, VA and VB, where TEP=VB−VA. The total transepithelial resistance (Rt), and the ratio of the apical to basolateral membrane resistance (RA/RB) were obtained by passing 2-4 μA current pulses (peak to peak) across the tissue and measuring the resultant changes in TEP, VA and VB. See Maminishkis et al. supra and Quinn et al., supra for details.

[3] = test system: iPSC derived retinal pigment epithelial cells; assay: Aphidicolin treatment of iPSC-derived RPE: polarization, electrophysiology and phenotype
Excerpt: as §1
Aphidicolin is a reversible inhibitor of eukaryotic nuclear DNA replication that blocks the cell cycle at early S phase. Its structure is that of a tetracyclic small molecule. […] It causes committed RPE cells to further mature and form fully-differentiated and highly polarized tissue monolayers (see FIGS. 30-31). Aphidicolin is dissolved in fourth medium and RPE cells are cultured in it for 6-8 weeks before analysis is done.

[4] = test system: reporter iPSC line; assay: GFP reporter signal / FACS analysis of RPE differentiation from reporter iPSC line; details: NAW versus NA, FIG. 17
Excerpt: To optimize the protocol for iPSC to RPE differentiation, a reporter iPSC line was created. This reporter line constitutively expresses a red fluorescent protein, whose expression is controlled by ubiquitin gene promoter. The reporter iPSC line also expresses a green fluorescent protein (GFP), specifically when differentiated in to RPE lineage (FIG. 1-3). The RPE-specific enhancer of the gene Tyrosinase controls GFP expression in this iPSC line (FIG. 1). The first goal was to confirm that the GFP expression truly represents RPE lineage. To achieve this, iPSC line were differentiated using published differentiation protocols and characterized those differentiated cells using molecular and physiological assays. These assays are disclosed in FIGS. 22-24. FIG. 2 describes a simple schematic drawing of iPSC-RPE differentiation. When the reporter iPSC were differentiated into RPE, approximately 28 days into differentiation, GFP positive cells are present (FIG. 3A). […] GFP positive and negative cells were sorted by flow cytometry and the expression of several RPE-specific genes was analyzed, shown in FIG. 4.
Activin A induces RPE differentiation from ES cells. […] When quantified by FACS analysis, NA treatment produced only 22% GFP positive cells, whereas NAW treatment produced 52% GFP positive cells (FIG. 17, bottom panel).

[5] = test system: iPSCs; assay: RPE differentiation from iPSCs scored by pigmented cells
Description: Transfer cells to Retinal Media (RM) plus Nicotinamide, Activin, and Wnt3a (NAW). Change media every other day (eg. Mon, Wed, and Fri) for 3 weeks.
Next, the effect of the concentration of knockout serum replacement (KSR) on RPE differentiation was tested.
Activin A induces RPE differentiation from ES cells. In animal models, canonical WNT (WNT3a) is important for RPE differentiation. It was hypothesized that a combination of activin A and WNT3a would be effective for the induction of RPE differentiation from iPSCs. A combination of these two factors was tested at the optic vesicle stage. Cells were moved from the RDM medium to medium containing either activin A (NA) only or activin A plus WNT3a (NAW). […] Because this differentiation process was started with the reporter iPSC lines, the increase in the number of RPE cell was confirmed by comparing the GFP signal between the two treatments. […] When quantified by FACS analysis, NA treatment produced only 22% GFP positive cells, whereas NAW treatment produced 52% GFP positive cells (FIG. 17, bottom panel).

[6] = test system: iPSCs; assay: Quantitative gene expression of Pax6 and Mitf during eye-field/optic vesicle differentiation; details: 50 ng/ml Noggin with dual inhibition of WNT pathway and inhibition of FGF pathway
Description: After 48 hours of floating EB cultures they are plated onto MATRIGEL® coated plates in RDM medium. It was investigated whether the number of EBs plated/well affects differentiation of iPSCs into RPE. […] RDM medium was used for 3 weeks with change of medium on cells every Monday, Wednesday, and Friday Inhibition of Nodal, BMP, and WNT pathways can be important for differentiation of stem cells into eye-field cells. To inhibit the nodal pathway, the inhibitor SB431542 was used. To inhibit the activity of BMP pathway, various concentrations of Noggin, a BMP inhibitor, were tested. For WNT pathway inhibition, a combination of biological Wnt inhibitor DKK1 and a small molecule inhibitor of the WNT pathway CK1-7 were used.
Results have shown that inhibition of FGF signaling is important for RPE development. Therefore, the activity of FGF signaling pathway was modulated by either changing its concentration or/and by adding FGF inhibitor (PD 0325901) to the medium. The results were scored weekly by quantitative gene expression measurements of two transcription factors Pax6 and Mitf which are the master regulators of RPE differentiation (FIGS. 8-13). In addition, GFP expression was scored after six weeks as a direct measure of induction of RPE cells (FIG. 14).

[7] = aphidicolin treated RPE cells, FIG. 31

## CNc1ccc2oc(C[C@H]3O[C@@]4(CC[C@H]3C)O[C@H]([C@H](C)C(=O)c3ccc[nH]3)[C@H](C)C[C@H]4C)nc2c1C(=O)O [A23187]
[1]
  effect on RPE phenotype (GFP signal): affected RPE phenotype

## Nc1ncnc2c1ncn2[C@@H]1O[C@H](COP(=O)(O)OP(=O)(O)OP(=O)(O)O)[C@@H](O)[C@H]1O [ATP]
[2]; apical application, FIG. 26C
  intracellular calcium response: typical bi-phasic response
[2]; applied to the apical membrane, FIG. 26D
  basolateral membrane potential response: significantly depolarizes the basolateral membrane

## O=CC[C@@H](O)[C@H](O)[C@H](O)CO [2-Deoxy-D-Glucose]
[1]
  effect on RPE phenotype (GFP signal): affected RPE phenotype

## C/C=C(/C)C(=O)O[C@H]1C(C)=C2[C@H]([C@@H]1OC(=O)CCCCCCC)[C@@](C)(OC(C)=O)C[C@H](OC(=O)CCC)[C@@]1(O)[C@H]2OC(=O)[C@@]1(C)O [Thapsigargin]
[1]
  effect on RPE phenotype (GFP signal): affected RPE phenotype

## C[C@@]1(CO)[C@H](O)CC[C@@]2(C)[C@H]1CC[C@H]1C[C@@H]3C[C@@]12CC[C@]3(O)CO [Aphidicolin]
[3]; [7]
  membrane potential: higher
  physiological responses (hyperpolarization to low potassium or ATP on the apical side): better physiological responses
  transepithelial resistance: higher
[3]; compared to non-treated cells, FIG. 30
  apical process / polarization of RPE cells: more extensive apical process
[3]; cultured 6-8 weeks in fourth medium with aphidicolin
  RPE phenotype of iPS cell derived RPE on artificial membranes/scaffolds: improves their RPE phenotype

B1: WNT3a: canonical WNT signaling regulator (protein, UniProt P56704 19-352, looked up)
Protein Wnt-3a: SYPIWWSLAVGPQYSSLGSQPILCASIPGLVPKQLRFCRNYVEIMPSVAEGIKIGIQECQHQFRGRRWNCTTVHDSLAIFGPVLDKATRESAFVHAIASAGVAFAVTRSCAEGTAAICGCSSRHQGSPGKGWKWGGCSEDIEFGGMVSREFADARENRPDARSAMNRHNNEAGRQAIASHMHLKCKCHGLSGSCEVKTCWWSQPDFRAIGDFLKDKYDSASEMVVEKHRESRGWVETLRPRYTYFKVPTERDLVYYEASPNFCEPNPETGSFGTRDRTCNVSSHGIDGCDLLCCGRGHNARAERRREKCRCVFHWCCYVSCQECTRVYDVHTCK
[4]
  number of GFP positive cells in differentiating iPSC cultures: significantly increases the number of GFP positive cells
[5]; activin A plus WNT3a (NAW) versus activin A only (NA), FIG. 16
  number of pigmented cells per dish: significantly increased the number of pigmented cells per dish
[5]; addition of WNT3a to Retinal Media with Nicotinamide and Activin
  RPE differentiation efficiency: significantly increased the RPE differentiation efficiency

B2: Noggin: a BMP inhibitor, protein encoded by the NOG gene (protein, UniProt Q13253 28-232, looked up)
Noggin: QHYLHIRPAPSDNLPLVDLIEHPDPIFDPKEKDLNETLLRSLLGGHYDPGFMATSPPEDRPGGGGGAAGGAEDLAELDQLLRQRPSGAMPSEIKGLEFSEGLAQGKKQRLSKKLRRKLQMWLWSQTFCPVLYAWNDLGSRFWPRYVKVGSCFSKRSCSVPEGMVCKPSKSVHLTVLRWRCQRRGGQRCGWIPIQYPIISECKCSC
[6]
  expression of Pax6 and Mitf during the three weeks: significantly and progressively improve the expression of Pax6 and Mitf
